Among the data in US7709637B2, “5-phenylpyrimidines, their preparation, intermediates for their preparation, and their use for controlling harmful fungi” (BASF SE, priority 2001, dated 2010) are logPow and melting point values, retold here.

The first series in a line: Lipophilicity parameter logPow by RP-HPLC run time method (OECD guideline). Type of series: physicochemical. The note with it: C18 stationary phase, methanol/buffer pH 7.4, isocratic. On the procedure: The lipophilicity parameters logPow (Table I) were determined as specified by OECD directive test guidelines using the RP-HPLC run time method.
To this end, a logk′/logPow correlation curve based on ten reference substances was plotted and validated with the aid of the lipophilicity parameters of eight comparative substances, which had been established by the extraction method.
A commercially available reversed-phase C18 stationary phase was used as stationary phase. Chromatographic separation was carried out with methanol and a buffer solution as mobile phase at pH 7.4 under isocratic conditions.
The retention times of the standards tR were converted in accordance with equation Φ into the capacity factors k′, where t0, as […] of the solvent unretarded on the reversed-phase C18 stationary phase, represents the dead time of the chromatographic system:
The linear correlation of the logk′ values with the logPow values of the standards published in the appendix to the Directive 92/69/EEC yields the correlation curve through linear regression.
The lipophilicity parameters logPow of the analytes were interpolated from the correlation curve of the standards after calculation of the logarithmic capacity logk′.
The validation of the RP-HPLC analytical method described, and of the standards used, is carried out with the aid of eight comparison active compounds, the distribution behavior of which was determined with the aid of the extraction method.
For `CC(C)Nc1nc(-c2ncccn2)nc(Cl)c1-c1c(F)cc(F)cc1F` [I-11], the logPow entry was “logPow 3.15”.

For `CCN(CC)c1nc(-c2ncccn2)nc(Cl)c1-c1c(F)cccc1Cl` [I-9], the logPow result is reported as “logPow 3.86”.

As to `CC(C)N(C)c1nc(-c2cnccn2)nc(Cl)c1-c1c(F)cc(F)cc1F` [I-21], the logPow entry is listed as “logPow 4.48”.

As for `CC(C)(C)CNc1nc(-c2cnccn2)nc(Cl)c1-c1c(F)cc(F)cc1F` [I-22], the logPow result is recorded as “logPow 4.72”.

Take `CCN(CC)c1nc(-c2cnccn2)nc(Cl)c1-c1c(F)cccc1Cl` [I-14]: the logPow result was “logPow 4.49”.

As to `CC(C)Nc1nc(-c2cnccn2)nc(Cl)c1-c1c(F)cc(F)cc1F` [I-18], the logPow result is on record as “logPow 4.7”.

Regarding `CCN(CC)c1nc(-c2cnccn2)nc(Cl)c1-c1c(F)cc(F)cc1F` [I-20], the logPow result is on record as “logPow 4.41”.

Test in the next series: not given
Settings: not given
As for `C[C@H](Nc1nc(-n2ccnc2)nc(Cl)c1-c1c(F)cc(F)cc1F)C(F)(F)F` [I-3, (S)-6-Chloro-4-(2,2,2-trifluoro-1-methylethyl)amino-5-(2,4,6-trifluorophenyl)-2-(1-imidazolyl)pyrimidine], the melting point lay within 172 to 173 °C.

Compound `C[C@H](Nc1nc(-n2cccn2)nc(Cl)c1-c1c(F)cc(F)cc1F)C(F)(F)F` [I-2, (S)-6-Chloro-4-(2,2,2-trifluoro-1-methylethyl)amino-5-(2,4,6-trifluorophenyl)-2-(1-pyrazolyl)pyrimidine] displayed a melting point of 209 °C.

As to `C[C@H](Nc1nc(-n2cncn2)nc(Cl)c1-c1c(F)cc(F)cc1F)C(F)(F)F` [I-4, (S)-6-Chloro-4-(2,2,2-trifluoro-1-methylethyl)amino-5-(2,4,6-trifluorophenyl)-2-(1,2,4-triazol-1-yl)pyrimidine], the melting point is 176 to 177 °C.
